This assay is described as follows: Inhibition of compound against Guanine-7-methyl transferase.

pKi: −log10 of the molar value.

For the molecule `Nc1nc(O)c2cc(CSC[C@H]3O[C@@H](n4cnc5c(N)ncnc54)[C@H](O)[C@@H]3O)[nH]c2n1`, the negative-log Ki (pKi) was 4.03.

The values above are taken from BindingDB's records for doi:10.1021/jm00121a001 (University of Utah, 1989).
